Data: patent US20090099099A1, “Isoflavone Glycosides as Peroxisome Proliferator-Activated Receptor-alpha Modulator” (priority 2007, published 2009)
Like-named read-outs stand apart in the source and are kept apart here.

Experiments:
PPAR-α [1] = molecular target: T1, PPAR-α (Homo sapiens, UniProt Q07869); details: cited from earlier work
T1 sequence (Q07869 1-468): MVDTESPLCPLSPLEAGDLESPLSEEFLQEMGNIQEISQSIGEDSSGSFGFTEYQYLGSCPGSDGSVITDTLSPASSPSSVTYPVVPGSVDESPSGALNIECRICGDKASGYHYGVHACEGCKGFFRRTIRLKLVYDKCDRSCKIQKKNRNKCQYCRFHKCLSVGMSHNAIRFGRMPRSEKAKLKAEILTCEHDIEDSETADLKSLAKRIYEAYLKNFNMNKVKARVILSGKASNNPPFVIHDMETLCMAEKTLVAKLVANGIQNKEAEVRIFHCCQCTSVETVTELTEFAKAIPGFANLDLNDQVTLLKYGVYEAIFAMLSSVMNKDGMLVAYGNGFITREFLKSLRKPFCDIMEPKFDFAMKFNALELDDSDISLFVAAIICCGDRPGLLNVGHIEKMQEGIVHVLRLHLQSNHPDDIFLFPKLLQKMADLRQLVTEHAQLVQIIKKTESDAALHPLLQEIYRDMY

[2] = mice; cited from earlier work
PPAR-α [3] = test: Protein immuno-blotting of PPAR-α expression in HepG2 cells; format: cell-based, human; details: puerarin 1-100 μM, 24 hours, Western blotting
Procedure: FIG. 2. Expression of PPAR-α in HepG2 cells. Cells were incubated in puerarin (1-100 μM) for 24 hrs. Whole cell lysate were collected and PPAR-α expression was probed using anti-PPAR-α (Santa Cruz, Calif.) in Western blotting. Each lane was loaded with 50 μg protein from cell lysate. Expression of actin was also probed to ensure protein loading.
Cell Cultures HepG2 cells was purchased from American Type Culture Collection (Manassas, Va.). They were maintained in DMEM containing 10% heat-inactivated fetal bovine serum and 1% penicillin/streptomycin in tissue culture dishes incubated in 95% air/5% CO2, at 37° C. The media were changed 2 times per week until the cells were confluent.
Protein immuno-blotting of PPAR-α. HepG2 cells were collected in RIPA buffer (150 mM NaCl, 1% Triton X-100, 1% sodium deoxycholate, 0.1% sodium dodecyl sulfate, 50 mM Tris-HCl, 2 mM EDTA, pH 7.5) with protease inhibitors (Mini-Complete protease inhibitor cocktail tablets (Roche Diagnostics, Mannheim, Germany)] after incubated in puerarin (1-100 μM) for 24 hours. The protein content of the cell lysate was quantified by using a protein assay kit (Bio-Rad Lab, Hercules Calif.). Protein (50 μg) from the whole cell lysate was loaded in each lane of a polyacrylamide (10%) gel, eletrophoresed and blotted to a polyvinylidene difluoride (PVDF) membrane. […]

[4] = Body weights of SHRSP rats treated by gavage for 5 months; format: in vivo
Procedure: FIG. 3. Effects of puerarin on the body weights of rats. The rats were fed on a normal chow diet for 5 months starting when they were 4 weeks old. The rats were treated by gavage either with vehicle (normal saline) or puerarin (250 mg/Kg/day in a single dose in normal saline). The data were compared statistically by using two-way ANOVA with n=8 in each group.
Spontaneously hypertensive stroke-prone (SHRSP) male rats were fed on a normal chow diet for 5 months starting when they were 4 weeks old. The rats were treated by gavage either with vehicle (normal saline) or puerarin (250 mg/Kg/day in a single dose in normal saline). Their blood pressures and body weights were monitor everyday for 5 months.

[5] = cited from earlier work
[6] = rats, oral intake; cited from earlier work

Row | Structure (SMILES) | activation of PPAR-α (PPAR-α [1]) | effect on glucose tolerance [2] | PPAR-α expression (PPAR-α [3]) | body weights, treatment group vs control group (two-way ANOVA) ([4]; 250 mg/Kg/day by gavage, 5-month period, n=8, P<0.001) | toxicity ([4]; 250 mg/Kg/day orally, 5 months, rats) | body weight less than the control rats in average ([4]; 250 mg/Kg/day orally, over 5 months period, SHRSP male rats, normal chow diet) | Effects ([5]; AMI patients (Xiao et al., 2004)) | Effects ([5]; Angina patients (Yang et al., 1990)) | Effects ([5]; CHD patients (Xie et al., 2003)) | Effects ([5]; Chronic heart failure patients (Duan et al., 2000)) | Effects ([5]; Coronary heart disease (CHD) patients (Shi et al., 2002)) | Effects ([5]; Diabetic retinopathy patients (Ren et al., 2000)) | Effects ([5]; Unstable angina (UA) patients (Luo and Zheng, 2001)) | absorption from the intestine [6] | metabolism in the blood [6]
1 | O=c1c(-c2ccc(O)cc2)coc2cc(O)ccc12 [daidzein] | activate PPAR-α |  |  |  |  |  |  |  |  |  |  |  |  |  | 
2 | O=c1c(-c2ccc(O)cc2)coc2cc(O[C@@H]3O[C@H](CO)[C@@H](O)[C@H](O)[C@H]3O)ccc12 [daidzin, reference compound] |  | impairs glucose tolerance |  |  |  |  |  |  |  |  |  |  |  |  | 
3 | O=c1c(-c2ccc(O)cc2)coc2c([C@@H]3O[C@H](CO)[C@@H](O)[C@H](O)[C@H]3O)c(O)ccc12 [puerarin, 4H-1-Benzopyran-4-one, 8-β-D-glucopyranosyl-7-hydroxy-3-(4-hydroxyphenyl)] |  | improves glucose tolerance | upregulated | significantly different | no apparent toxicity | 13% | ↓ the infarction size, ↓free fatty acids | Anti-angina, reducing both systolic | Simulate the late phase of ischemic | ↓ oxidized-LDL, improve heart | Improve insulin resistance, and insulin | ↓ blood viscosity, improve | ↓ platelet granule membrane protein | rapidly absorbed | mostly remains unmetabolized
